A value given as a limit tells only on which side of the number the result lay.

The target in this assay is T1, cellular PARG (Homo sapiens, UniProt Q86W56).
T1 construct: endogenous in cells; host or cells: HeLa
The experiment in a line: Nuclear PAR accumulation assay (immunofluorescence high-content imaging). The conditions noted are these: HeLa cells, 1 hour compound treatment then MMS 50 μg/mL for an additional hour. The class given is cell-based. The gist of the method:
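HeLa cells pretreated 1 h at 37 °C with compound, then 1 h with 50 μg/mL MMS (final), methanol-fixed and immunostained for PAR with DAPI nuclear counterstain. Nuclear PAR intensity and percent PAR-positive cells quantified by high-content imaging (≥1,000 cells/well). IC50 by four-parameter logistic fit, normalized to 0.1% DMSO and reference-compound controls.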

T1 sequence (Q86W56 whole entry): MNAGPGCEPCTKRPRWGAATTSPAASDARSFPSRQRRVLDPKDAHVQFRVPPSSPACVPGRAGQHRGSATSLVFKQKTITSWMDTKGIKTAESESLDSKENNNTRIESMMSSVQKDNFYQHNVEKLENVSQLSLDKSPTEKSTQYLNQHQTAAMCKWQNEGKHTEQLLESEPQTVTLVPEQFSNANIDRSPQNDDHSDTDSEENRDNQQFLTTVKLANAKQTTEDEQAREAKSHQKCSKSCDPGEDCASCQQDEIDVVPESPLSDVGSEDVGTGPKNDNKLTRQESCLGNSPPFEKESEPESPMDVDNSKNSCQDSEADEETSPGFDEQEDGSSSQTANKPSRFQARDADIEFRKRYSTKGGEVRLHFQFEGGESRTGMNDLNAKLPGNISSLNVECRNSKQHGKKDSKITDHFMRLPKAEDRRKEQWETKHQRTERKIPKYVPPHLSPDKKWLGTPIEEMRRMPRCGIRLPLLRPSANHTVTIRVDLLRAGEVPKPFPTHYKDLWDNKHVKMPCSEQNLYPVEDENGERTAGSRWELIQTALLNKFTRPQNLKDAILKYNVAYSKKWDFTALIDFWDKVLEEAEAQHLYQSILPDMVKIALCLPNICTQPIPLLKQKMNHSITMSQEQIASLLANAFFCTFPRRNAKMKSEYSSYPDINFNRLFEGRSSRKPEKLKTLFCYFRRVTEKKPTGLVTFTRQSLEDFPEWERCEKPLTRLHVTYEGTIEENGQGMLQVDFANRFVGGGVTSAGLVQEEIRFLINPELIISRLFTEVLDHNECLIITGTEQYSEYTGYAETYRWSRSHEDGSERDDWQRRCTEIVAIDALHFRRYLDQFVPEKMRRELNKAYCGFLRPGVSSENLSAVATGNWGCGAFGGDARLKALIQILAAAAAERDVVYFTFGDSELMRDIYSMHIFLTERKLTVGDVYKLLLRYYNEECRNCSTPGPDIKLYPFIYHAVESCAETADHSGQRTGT

As usually defined, the IC50 is the concentration that gives 50% inhibition. In the case of `[2H]C([2H])(c1cnn(C)c1)N1C(=O)c2cc(S(=O)(=O)NC3(C)CC3)ccc2N2C1=NC[C@@H]2C` [Example 91, (S)-4-(dideutero(1-methyl-1H-pyrazol-4-yl)methyl)-1-methyl-N-(1-methylcyclopropyl)-5-oxo-1,2,4,5-tetrahydroimidazo[1,2-a]quinazoline-7-sulfonamide], the IC50 lay in the range of 100 to 1000 nM.

The compound `[2H]C([2H])(c1cnn(C)c1)N1C(=O)c2cc(S(=O)(=O)NC3(C)CC3)cc(OC)c2N2C1=NC[C@H]2C` [Example 92, (R)-4-(dideutero(1-methyl-1H-pyrazol-4-yl)methyl)-9-methoxy-1-methyl-N-(1-methylcyclopropyl)-5-oxo-1,2,4,5-tetrahydroimidazo[1,2-a]quinazoline-7-sulfonamide] returned a 50% inhibitory concentration (IC50) of 100 to 1000 nM. As for `Cn1cc(CN2C(=O)c3cc(S(=O)(=O)NC4(C)CC4)ccc3N3C2=N[C@H]2COC[C@H]23)cn1` [Example 93, (7aR,10aS)-6-((1-methyl-1H-pyrazol-4-yl)methyl)-N-(1-methylcyclopropyl)-5-oxo-5,6,7a,8,10,10a-hexahydrofuro[3′,4′:4,5]imidazo[1,2-a]quinazoline-3-sulfonamide], the figure is no more than 100 nM; as for `Cc1nc(C)c(CN2C(=O)c3cc(S(=O)(=O)NC4CC4)ccc3N3C2=NC[C@H]3C)s1` [Example 94, (R)-N-cyclopropyl-4-((2,4-dimethylthiazol-5-yl)methyl)-1-methyl-5-oxo-1,2,4,5-tetrahydroimidazo[1,2-a]quinazoline-7-sulfonamide], no more than 100 nM. For `CN(C)C[C@@H]1CN=C2N(Cc3cnn(C)c3)C(=O)c3cc(S(=O)(=O)NC4(C)CC4)ccc3N21` [Example 95, (R)-1-((dimethylamino)methyl)-4-((1-methyl-1H-pyrazol-4-yl)methyl)-N-(1-methylcyclopropyl)-5-oxo-1,2,4,5-tetrahydroimidazo[1,2-a]quinazoline-7-sulfonamide] the value was no more than 100 nM.

`CN(C)C[C@H]1CN=C2N(Cc3cnn(C)c3)C(=O)c3cc(S(=O)(=O)NC4(C)CC4)ccc3N21` [Example 96, (S)-1-((dimethylamino)methyl)-4-((1-methyl-1H-pyrazol-4-yl)methyl)-N-(1-methylcyclopropyl)-5-oxo-1,2,4,5-tetrahydroimidazo[1,2-a]quinazoline-7-sulfonamide] gave an IC50 of 1000 to 10000 nM.

In turn, `Cn1cc(CN2C(=O)c3cc(S(=O)(=O)NC4(C)CC4)ccc3N3C2=NC[C@H]3CN)cn1` [Example 97, (R)-1-(aminomethyl)-4-((1-methyl-1H-pyrazol-4-yl)methyl)-N-(1-methylcyclopropyl)-5-oxo-1,2,4,5-tetrahydroimidazo[1,2-a]quinazoline-7-sulfonamide] displayed a concentration for half-maximal inhibition (IC50) of 100 to 1000 nM. As for `[2H]C([2H])(c1sc(C)nc1C)N1C(=O)c2cc(S(=O)(=O)NC3(C)CC3)ccc2N2C1=N[C@H]1COC[C@H]12` [Example 98, (7aR,10aS)-6-(dideutero(2,4-dimethylthiazol-5-yl)methyl)-N-(1-methylcyclopropyl)-5-oxo-5,6,7a,8,10,10a-hexahydrofuro[3′,4′:4,5]imidazo[1,2-a]quinazoline-3-sulfonamide], the figure is no more than 100 nM; as for `CNC[C@@H]1CN=C2N(Cc3cnn(C)c3)C(=O)c3cc(S(=O)(=O)NC4(C)CC4)ccc3N21` [Example 99, (R)-4-((1-methyl-1H-pyrazol-4-yl)methyl)-1-((methylamino)methyl)-N-(1-methylcyclopropyl)-5-oxo-1,2,4,5-tetrahydroimidazo[1,2-a]quinazoline-7-sulfonamide], 100 to 1000 nM.

Take `Cn1cc(CN2C(=O)c3cc(S(=O)(=O)NC4(C)CC4)ccc3N3CC4(CC4)N=C23)cn1` [Example 100, 4′-((1-methyl-1H-pyrazol-4-yl)methyl)-N-(1-methylcyclopropyl)-5′-oxo-4′,5′-dihydro-1′H-spiro[cyclopropane-1,2′-imidazo[1,2-a]quinazoline]-7′-sulfonamide]: the IC50 is no more than 100 nM.

For the origin of these results see patent US12435092B2, “Substituted imidazo[1,2-A]quinazolines as inhibitors of PARG” (858 Therapeutics, Inc., priority 2022, dated 2025).
